Experimental findings from patent US7674787B2, “Conformationally constrained Smac mimetics and the uses thereof” (The Regents of the University of Michigan, priority 2004, dated 2010) are described below.

As usually defined, the Ki is a measure of affinity in units of concentration, obtained from inhibition or displacement. A higher Ki goes with lower affinity.

Like-named read-outs stand apart in the source and are kept apart here. Where a SMILES comes first, the peptide text is derived from it. [ ]: non-standard residue; d: D form. The star is where a group is joined. 6FAM = O=C1OC2(c3ccc(O)cc3Oc3cc(O)ccc32)c2cc(C(=O)*)ccc21; Abu = CC[C@H](N)C(=O)O

The target of one assay is XIAP BIR3 (Homo sapiens, UniProt P98170). The assay can be described thus: biochemical.
Sequence of XIAP BIR3 (P98170 241-356): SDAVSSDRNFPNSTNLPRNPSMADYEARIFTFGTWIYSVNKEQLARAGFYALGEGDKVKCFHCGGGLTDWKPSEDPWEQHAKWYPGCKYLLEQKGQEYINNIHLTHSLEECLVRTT
Assay [1] relates to BT-549, MDA-MB-231 (subclone 2LMP), MDA-MB-231 (ATCC) and PC-3 cells. As to the kind of experiment: Cell growth inhibition, WST-8, cancer cell lines. The conditions noted are these: 5 days, WST-8; each of the cancer cell lines. The format is cell-based, human. The protocol: To test the effect of [6.3.0] Smac mimetics in inhibition of cell growth in human cancer cells, compounds were administered to several different cancer cell lines. BT-549, MDA-MB-231 (subclone 2LMP), and MDA-MB-231 (ATCC) human breast cancer cells and PC-3 human prostate cancer cells were seeded in 96-well plates with increasing concentrations of the compounds. To assay for the selectivity of the compounds for cancer cells, normal prostate epithelial cells were also tested. The cells were then incubated at 37° C. with 5% CO2 for 5 days, followed by detection of cell viability with WST-8. Untreated cells were used as 100% growth. The compounds tested were SH-109, SH-122 and SH-123 (Table 6).
On the technique in general: Tetrazolium assays rely on reduction of a dye to a coloured formazan, in cell work by metabolically active cells.

A further assay has as its system PC-3 cells. As to the kind of experiment: Apoptosis by Annexin V-FITC staining in PC-3 cells. The format is cell-based, human. The conditions noted are these: for potentiation of CDDP activity in inducing apoptosis: PC-3 cells or MDA-231 cells; for cells undergoing apoptosis as compared to control cells: 42 hours. An excerpt:
SH-97, a peptido-mimetic in which the side chain of alanine has been replaced with an ethyl group and the isoleucine has been replaced with a diphenylmethyl group, was used to test the basic premise. Of note, SH-97 still has two natural amino acids (valine and proline) and one natural peptide bond. […] The experiment used PC-3 cells which express high levels of XIAP and cIAP-1/2 proteins and cisplatin (CDDP) as the chemotherapeutic drug. CDDP is a DNA damaging agent and can effectively induce apoptosis in PC-3 cells and is also a clinically used chemotherapeutic drug for prostate cancer.
PC-3 cells were treated with CDDP, Smac peptides and mimetics alone or in combination for 42 hours and apoptosis was analyzed by Annexin V-FITC staining. […] Combination of 25 μM CDDP and 10 μM or 25 μM SH-97 induced 29.3%±1.9% and 35.8%±0.4% apoptosis over control cells, respectively (FIG. 18A).
Similar experiments were performed with SH-102 (Table 5). PC-3 cells in 6-well plates were treated with SH-102 and CDDP, alone or in combination, for 42 hours. Cells were collected and stained with Annexin V-FITC and propidium iodide. The fluorescence of Annexin V-FITC and propidium iodide of individual cells was analyzed by flow cytometry. […] Combination of 25 μM CDDP and 10 μM SH-102 induced 32% apoptosis over control cells (FIG. 19).
The same experiment was performed using TAXOTERE (docetaxel), another cancer chemotherapeutic drug. PC-3 cells in 6-well plates were treated with SH-102 and TAXOTERE, alone or in combination, for 42 hours. Cells were collected and stained with Annexin V-FITC and propidium iodide. The fluorescence of Annexin V-FITC and propidium iodide of individual cells was analyzed by flow cytometry. […] Combination of 10 μM TAXOTERE and 10 μM SH-102 induced about 18% apoptosis over control cells (FIG. 21).

For another assay, the system named is MDA-231 cells. The assay can be described thus: Apoptosis by Annexin V-FITC/propidium iodide in MDA-231 cells. The format is cell-based, human. The conditions noted are these: for cells undergoing apoptosis as compared to control cells: 42 hours. The protocol: Similar experiments were performed using the breast cancer cell line MDA-231. MDA-231 cells in 6-well plates were treated with SH-102 and CDDP, alone or in combination, for 42 hours. Cells were collected and stained with Annexin V-FITC and propidium iodide. The fluorescence of Annexin V-FITC and propidium iodide of individual cells was analyzed by flow cytometry. 25 μM and 50 μM CDDP induced about 25% and 42% of MDA-231 cells to undergo apoptosis as compared to control cells, respectively (FIG. 22). […] Combination of 25 and 50 μM CDDP and 10 μM SH-102 induced about 35% and 75% apoptosis over control cells, respectively (FIG. 22).

For assay [2], the target named is T1, human XIAP-BIR3 protein (residues 241-356) (Homo sapiens, UniProt P98170).
T1 construct: The human XIAP-BIR3 protein (residues 241-356) with a His tag
T1 sequence (P98170 241-356): as above
As to the kind of experiment: Fluorescence polarization saturation binding of labeled Smac peptides. In general terms: Polarisation of emitted light reports the rotation of a fluorescent probe.
Excerpt: A quantitative in vitro binding assay using fluorescence polarization was developed.

The subject of assay [3] is MDA-435, MDA-468, and T47D cells. The assay can be described thus: Cell growth inhibition, WST-8, breast cancer cell lines. Type of assay: cell-based, human. The conditions noted are these: 5 days, all three cell lines. The protocol:
To test the effect of Smac mimetics by themselves in inhibition of cell growth in human cancer cells, SH-102 was administered to three different breast cancer cell lines. MDA-435, MDA-468, and T47D cells were seeded in 96-well plates with increasing concentrations of SH-102, Smac8, or Smac8-C. The cells were then incubated at 37° C. with 5% CO2 for 5 days, followed by detection of cell viability with WST-8 (10% Dojindo solution in IMEM with 10% FCS). OD values at 450 nm with reference at 650 nm were read approximately 3 hours later. Untreated cells were used as 100% growth. […]. […] (FIGS. 26A-26C).

Consider `C[C@H](N)C(=O)N[C@H]1CC[C@H]2CC[C@@H](C(=O)NCc3ccccc3Br)N2C1=O` [SH-73], for which, on XIAP BIR3, the affinity corresponds to a Ki of 26.3 µM.
Still for that read-out and setting: to `CC[C@H](N)CC[C@H]1CCC[C@H]2CC[C@@H](C(=O)NC(c3ccccc3)c3ccccc3)N2C1=O` [SH-107] belongs greater than 40 µM; to `CC[C@H](N)C(=O)N[C@H]1CCCC[C@H]2CC[C@@H](C(=O)N[C@H](c3ccccc3)c3ccccc3C)N2C1=O` [SH-113], 0.14 µM.
On the same count and under the same terms, to `C[C@H](N)C(=O)N[C@H]1CC[C@H]2CC[C@@H](C(=O)NCc3cccc(Br)c3)N2C1=O` [SH-74] belongs 9.62 µM; to `C[C@H](N)C(=O)N[C@H]1CC[C@H]2CC[C@@H](C(=O)N[C@H](Cc3ccccc3)C(N)=O)N2C1=O` [SH-92], 9.98 µM; to `CC[C@H](N)C(=O)N[C@H]1CCCC[C@H]2CC[C@@H](C(=O)N[C@H](c3ccccc3)c3cccc(C)c3)N2C1=O` [SH-114], 0.027 µM.
For the compound `CC[C@H](N)C(=O)N[C@H]1CCCC[C@H]2CC[C@@H](C(=O)NC(c3ccccc3)c3ccccc3)N2C1=O` [SH-109], in assay [1], the “cell growth inhibition (in words)” value was “inhibited the cell growth”. The compound further yielded a Ki on XIAP BIR3 of 0.028 µM.
In the case of `C[C@H](N)C(=O)N[C@H]1CC[C@H]2CC[C@@H](C(=O)NCc3ccoc3)N2C1=O` [SH-84], at XIAP BIR3, the affinity corresponds to a Ki of 9.98 µM.
In turn, `C[C@H](N)C(=O)N[C@H]1CC[C@H]2CC[C@@H](C(=O)NCCc3c[nH]c4ccccc34)N2C1=O` [SH-79] showed a Ki at XIAP BIR3 greater than 200 µM.
Consider `C[C@H](N)C(=O)N[C@H]1CC[C@H]2CC[C@@H](C(=O)Nc3ccccc3)N2C1=O` [SH-69], for which, on XIAP BIR3, the Ki is greater than 200 µM.
For `Cc1cccc(CNC(=O)[C@@H]2CC[C@@H]3CC[C@H](NC(=O)[C@H](C)N)C(=O)N32)c1` [SH-77], on XIAP BIR3, the Ki was determined as 44.4 µM.
Still for that read-out and setting: under `CC[C@H](N)C(=O)N[C@H]1CC[C@H]2CC[C@@H](C(=O)N[C@@H](Cc3ccccc3)c3ccccc3)N2C1=O` [SH-100] stands 8.51 µM.
With `CC[C@H](N)C(=O)N[C@H]1CCC[C@H]2CC[C@@H](C(=O)NCc3ccccc3)N2C1=O` [Compound 33], the Ki is 0.06 µM at XIAP BIR3; 0.06 µM on XIAP BIR3 (Ki); 0.06 ± 0.015 µM at XIAP BIR3 (Ki (μM), Table 4, [5.3.0] bicyclic lactam system).
`CC[C@H](N)C(=O)N[C@H]1CCCC[C@H]2CC[C@@H](C(=O)N[C@H](c3ccccc3)c3ccc(C)cc3)N2C1=O` [SH-115] came in with a Ki at XIAP BIR3 of 0.092 µM.
On the same count and under the same terms, under `C[C@H](N)C(=O)N[C@H]1CCC[C@H]2CC[C@@H](C(=O)NC(c3ccccc3)c3ccccc3)N2C1=O` [SH-104] stands 0.059 µM.
Take `CCC[C@H](N)C(=O)N[C@H]1CC[C@H]2CC[C@@H](C(=O)NCc3ccccc3)N2C1=O` [SH-93]: in the assay with PC-3 cells, the “potentiation of CDDP activity in inducing apoptosis” value is given as “unable to potentiate the activity of CDDP”. Besides, the “effect of combination with CDDP on apoptosis” value with MDA-231 cells (25 and 50 μM CDDP + 25 μM SH-93, 42 hours) is listed as “no significant effect”. On XIAP BIR3 (Ki (μM), Table 5), this compound gave a Ki greater than 100 µM.
Consider `CC(=O)O[C@@]12CO[C@@H]1C[C@H](O)[C@@]1(C)C(=O)[C@H](O)C3=C(C)[C@@H](OC(=O)[C@H](O)[C@@H](NC(=O)OC(C)(C)C)c4ccccc4)C[C@@](O)([C@@H](OC(=O)c4ccccc4)[C@H]21)C3(C)C` [TAXOTERE, docetaxel, reference compound], for which the “cells undergoing apoptosis as compared to control cells” value in the assay on PC-3 cells (10 μM TAXOTERE alone) is on record as “about 5%”; with PC-3 cells (20 μM TAXOTERE alone), roughly 8%.
Consider `CC[C@H](N)C(=O)N[C@@H](CCCNC(=N)N)C(=O)N1CCC[C@H]1C(=O)N[C@@H](Cc1ccccc1)C(=O)N[C@@H](CCCCNC(=O)c1ccc2c(c1)C1(OC2=O)c2ccc(O)cc2Oc2cc(O)ccc21)C(=O)O` [SM5F, AbuRPFK-FAM] (H-[Abu]RPFK(6FAM)-OH; N-terminus and C-terminus assumed), for which the “ratio of the Kd values between labeled SM5F and S9F” value in assay [2] (SM5F versus S9F) is given as 7.2 fold. The “binding affinity higher than natural Smac peptide S9F” value in assay [2] (relative to S9F) is “about 10 times”.
On XIAP BIR3, `CC[C@H](N)C(=O)N[C@H]1CCCC[C@H]2CC[C@@H](C(=O)N[C@@H](c3ccccc3)c3ccc(C)cc3)N2C1=O` [SH-118] displayed a Ki of 0.016 µM.
On the same count and under the same terms, under `CC(C)C(NC(=O)[C@H](C)N)C(=O)C1CCC[C@H]1C(=O)NCc1ccccc1` (stereo partly drawn) [Compound 1] stands 0.29 ± 0.06 µM.
Still for that read-out and setting: to `CC[C@H](N)C(=O)N[C@H]1CCCC[C@H]2CC[C@@H](C(=O)N[C@H](c3ccccc3)c3ccc4ccccc4c3)N2C1=O` [SH-119] belongs 0.12 µM; to `C[C@H](N)C(=O)N[C@H]1CC[C@H]2CC[C@@H](C(=O)N[C@H](C)c3ccccc3)N2C1=O` [SH-72], 8.88 µM.
As for `C[C@H](O)C(=O)N[C@H]1CCCC[C@H]2CC[C@@H](C(=O)NC(c3ccccc3)c3ccccc3)N2C1=O` [SH-123], the “cell growth inhibition (in words)” value in assay [1] is recorded as “inhibited the cell growth”. Further, the Ki on XIAP BIR3 was greater than 10 µM.
In turn, `CC[C@H](N)C(=O)N[C@H]1CCCC[C@H]2CC[C@@H](C(=O)N[C@@H](c3ccccc3)c3ccc4ccccc4c3)N2C1=O` [SH-120] gave a Ki on XIAP BIR3 of 0.023 µM.
Still for that read-out and setting: under `CC[C@H](N)C(=O)N[C@H]1CCCC[C@H]2CC[C@@H](C(=O)N[C@@H](c3ccccc3)c3ccccc3C)N2C1=O` [SH-116] stands 0.019 µM.
For the compound “AVPIAQKS [Smac-8, Smac peptide without a carrier peptide, negative control, reference compound]”, the “potentiation of CDDP activity in inducing apoptosis” value in the assay on PC-3 cells is “unable to potentiate the activity of CDDP”. For the same compound, the “cell growth inhibition (in words)” value in assay [3] was “essentially ineffective”.
For the compound `CC[C@H](N)C(=O)N[C@H]1CCCC[C@H]2CC[C@@H](C(=O)N[C@@H](c3ccccc3)c3cccc(C)c3)N2C1=O` [SH-117], the affinity on XIAP BIR3, expressed as Ki, was 0.012 µM.
Still for that read-out and setting: to `C[C@H](N)C(=O)N[C@H]1CC[C@H]2CC[C@@H](C(=O)NCc3ccc(Br)cc3)N2C1=O` [SH-75] belongs 19.6 µM; to `C[C@H](N)C(=O)N[C@H]1CC[C@H]2CC[C@@H](C(=O)N[C@@H](C)c3ccccc3)N2C1=O` [SH-71], greater than 200 µM.
Regarding `[NH2][Pt]([NH2])([Cl])[Cl]` [CDDP, cisplatin, reference compound], the “cells undergoing apoptosis as compared to control cells” value in the assay with PC-3 cells (50 μM CDDP alone) is roughly 25%; in the assay with MDA-231 cells (25 μM CDDP alone) it was “about 25%”; in the assay with MDA-231 cells (50 μM CDDP alone) it was roughly 42%.
Consider `C[C@H](N)C(=O)N[C@H]1CC[C@H]2CC[C@@H](C(=O)NCc3ccsc3)N2C1=O` [SH-85], for which, on XIAP BIR3, the Ki is 6.28 µM.
The same measure, in the same setting: to `CC[C@@H](C(=O)N[C@H]1CCCC[C@H]2CC[C@@H](C(=O)NC(c3ccccc3)c3ccccc3)N2C1=O)N(C)C` [SH-125] belongs 0.03 µM.
The same measure, in the same setting: to `C[C@H](N)C(=O)N[C@H]1CCC[C@H]2CC[C@@H](COC(c3ccccc3)c3ccccc3)N2C1=O` [SH-106] belongs 2.01 µM; to `C[C@H](N)C(=O)N[C@H]1CC[C@H]2CC[C@@H](C(=O)NCc3cccc(Cl)c3)N2C1=O` [SH-78], 12.2 µM.
